Data on 20 compounds can be found in patent US12435068B2, “Anthelmintic compounds” (Elanco Animal Health GmBh, priority 2018, dated 2025).

In assay [1] the test system is Dirofilaria immitis microfilariae. The experiment in a line: In Vitro Assay 2: Dirofilaria immitis microfilariae (DIROIM L1) motility. It is filed as cell-based. Particulars: 72 h, read-out: EC50 ppm.
The next assay has as its target C. elegans Slo-1a (Caenorhabditis elegans, UniProt Q95V25).

Each structure is given as a SMILES string. ≈ marks a conversion by molar mass, not a printed value.

C. elegans Slo-1a, sequence (Q95V25 whole entry): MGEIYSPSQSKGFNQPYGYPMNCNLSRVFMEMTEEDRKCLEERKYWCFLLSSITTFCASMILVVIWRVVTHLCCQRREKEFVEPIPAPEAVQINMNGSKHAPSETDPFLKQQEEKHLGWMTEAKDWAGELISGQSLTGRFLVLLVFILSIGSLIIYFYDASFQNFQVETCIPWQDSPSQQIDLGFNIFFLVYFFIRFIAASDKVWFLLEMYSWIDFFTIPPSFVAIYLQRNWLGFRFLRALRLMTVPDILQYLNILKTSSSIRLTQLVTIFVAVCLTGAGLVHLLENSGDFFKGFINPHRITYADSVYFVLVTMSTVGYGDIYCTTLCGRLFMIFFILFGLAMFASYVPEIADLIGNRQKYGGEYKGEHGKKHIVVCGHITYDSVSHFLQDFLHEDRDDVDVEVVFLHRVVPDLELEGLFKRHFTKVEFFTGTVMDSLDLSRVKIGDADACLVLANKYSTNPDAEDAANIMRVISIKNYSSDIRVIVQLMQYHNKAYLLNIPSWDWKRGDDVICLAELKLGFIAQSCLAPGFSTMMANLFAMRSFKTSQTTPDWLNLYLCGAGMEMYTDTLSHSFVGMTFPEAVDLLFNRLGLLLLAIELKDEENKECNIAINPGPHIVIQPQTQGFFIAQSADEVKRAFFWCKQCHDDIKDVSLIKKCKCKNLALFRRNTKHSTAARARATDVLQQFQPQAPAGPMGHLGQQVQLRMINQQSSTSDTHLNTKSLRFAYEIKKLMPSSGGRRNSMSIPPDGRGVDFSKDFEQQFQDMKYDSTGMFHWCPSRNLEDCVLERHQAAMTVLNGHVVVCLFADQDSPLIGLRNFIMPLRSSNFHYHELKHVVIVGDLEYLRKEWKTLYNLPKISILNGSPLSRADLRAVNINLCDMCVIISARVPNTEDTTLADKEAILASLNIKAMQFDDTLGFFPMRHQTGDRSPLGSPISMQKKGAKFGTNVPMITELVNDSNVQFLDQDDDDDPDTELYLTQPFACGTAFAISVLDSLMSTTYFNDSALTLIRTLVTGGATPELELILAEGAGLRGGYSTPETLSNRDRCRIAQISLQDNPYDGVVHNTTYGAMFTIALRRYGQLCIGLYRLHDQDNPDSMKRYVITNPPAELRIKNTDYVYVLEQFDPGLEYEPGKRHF
Procedure for C. elegans Slo-1a: Cells were cultured at 37° C. and 5% CO2 in MEMalpha with Gutamax I (Invitrogen, Nr.: 32571), supplemented with 10% (v/v) heat inactivated fetal bovine serum (Invitrogen, Nr.: 10500), G418 (1 mg/ml, Invitrogen, Nr.: 10131). Cells were detached using Accutase (Sigma, Nr.: A6964).
Membrane Potential Measurements
Laboratory compound testing was performed on 384-well microtiter plates (MTPs, Greiner, Nr.: 781092). 8000 cells/well were plated onto 384-well MTPs and cultured for 20 to 24 hours at 37° C. and 5% CO2. After removal of the cell culture medium, the cells were washed once with tyrode (150 mM NaCl, 0.3 mM KCl, 2 mM CaCl2, 1 mM MgCl2, 0.8 mM NaH2PO4, 5 mM Glucose, 28 mM Hepes, pH 7.4) and then loaded with the voltage sensitive dye of the Membrane Potential Assay Kit diluted in tyrode for 1 h at room temperature.
After starting the measurement of fluorescence using a FLIPR Tetra (Molecular Devices, Exc. 510-545 nm, Emm. 565-625 nm), test compounds were added followed by the addition of KCl tyrode (final assay concentration: 70 mM KCl, 2 mM CaCl2, 1 mM MgCl2, 0.8 mM NaH2PO4, 5 mM Glucose, 28 mM Hepes, pH 7.4, including the voltage sensitive dye). The measurement was completed after 7 minutes.

As usually defined, the EC50 is the concentration giving half of the maximal effect. Regarding `O=C(N[C@H]1CCOc2ccccc21)C1=Cc2cccc(-c3cc(Cl)cc(Cl)c3)c2OC1` [Example Compound S8a-4, 8-(3,5-Dichlorophenyl)-N-[(4S)-3,4-dihydro-2H-chromen-4-yl]-2H-chromene-3-carboxamide], the EC50 was greater than 2 µg/mL in assay [1] and 20 nM at C. elegans Slo-1a.
For `O=C(N[C@H]1CCOc2ccccc21)c1ccc2nc(-c3cccc(C(F)(F)F)c3Cl)cnc2c1` [Example Compound S9-1, 2-[2-Chloro-3-(trifluoromethyl)phenyl]-N-[(4S)-3,4-dihydro-2H-chromen-4-yl]quinoxaline-6-carboxamide] the same measures were 0.52 µg/mL (≈ 1.07 µM) and 20 nM.
For `O=C(N[C@H]1CCOc2ccccc21)c1sc2c(-c3cc(Cl)cc(Cl)c3)ccc(F)c2c1N1CCOCC1` [Example Compound S1-18, 7-(3,5-Dichlorophenyl)-N-[(4S)-3,4-dihydro-2H-chromen-4-yl]-4-fluoro-3-(morpholin-4-yl)-1-benzothiophene-2-carboxamide] the same measures were 0.27 µg/mL (≈ 0.484 µM) and 126 nM.
For `CC(C)n1c(C(=O)N[C@H]2CCOc3ccccc32)cc2c(-c3cc(Cl)cc(Cl)c3Cl)cccc21` [Example Compound S2-4, N-[(4S)-3,4-Dihydro-2H-chromen-4-yl]-1-(propan-2-yl)-4-(2,3,5-trichlorophenyl)-1H-indole-2-carboxamide] the same measures were 0.02 µg/mL (≈ 0.0389 µM) and 15.8 nM.
Take `CC(C)n1c(C(=O)N[C@H]2CCOc3ccccc32)cc2c(-c3cc(Cl)cc(Cl)c3)cccc21` [Example Compound S2-5, 4-(3,5-Dichlorophenyl)-N-[(4S)-3,4-dihydro-2H-chromen-4-yl]-1-(propan-2-yl)-1H-indole-2-carboxamide]: the EC50 in assay [1] was 0.06 µg/mL (≈ 0.125 µM); at C. elegans Slo-1a it was 25.1 nM.
Turning to `CC(C)c1c(C(=O)N[C@H]2CCc3ccccc32)ccc2c1nnn2-c1ccc(Cl)cc1` [Example Compound S4-6, 1-(4-Chlorophenyl)-N-[(1S)-2,3-dihydro-1H-inden-1-yl]-4-(propan-2-yl)-1H-benzotriazole-5-carboxamide], the EC50 in assay [1] was greater than 2 µg/mL; on C. elegans Slo-1a, 251 nM.
With `COc1c(C(=O)N[C@H]2CCOc3ccccc32)sc2c(-c3cc(Cl)cc(Cl)c3)cccc12` [Example Compound S1-9, 7-(3,5-Dichlorophenyl)-N-[(4S)-3,4-dihydro-2H-chromen-4-yl]-3-methoxy-1-benzothiophene-2-carboxamide], the EC50 in assay [1] was 0.27 µg/mL (≈ 0.557 µM); at C. elegans Slo-1a, 251 nM.
For `CN(C)c1c(C(=O)N[C@H]2CCOc3ccccc32)cnc2c1cnn2-c1c(F)cccc1F` [Example Compound S4-5, 1-(2,6-Difluorophenyl)-N-[(4S)-3,4-dihydro-2H-chromen-4-yl]-4-(dimethylamino)-1H-pyrazolo [3,4-b]pyridine-5-carboxamide] the same measures were greater than 2 µg/mL and 398 nM.
`COc1c(C(=O)N[C@H]2CCOc3ccccc32)sc2c(-c3cccc(Cl)c3Cl)nccc12` [Example Compound S1-16, 7-(2,3-Dichlorophenyl)-N-[(4S)-3,4-dihydro-2H-chromen-4-yl]-3-methoxythieno[2,3-c]pyridine-2-carboxamide]: the results for the concentration giving a half-maximal response (EC50) (in assay [1]; at C. elegans Slo-1a) were 0.18 µg/mL (≈ 0.371 µM) and 25.1 nM, respectively.
For `O=C(N[C@H]1CCOc2ccccc21)c1sc2c(-c3cccc(Cl)c3Cl)cccc2c1Cl` [Example Compound S1-12, 3-Chloro-7-(2,3-dichlorophenyl)-N-[(4S)-3,4-dihydro-2H-chromen-4-yl]-1-benzothiophene-2-carboxamide] the same measures were 0.1 µg/mL (≈ 0.205 µM) and 158 nM.
For `COc1c(C(=O)N[C@H]2CCOc3ccccc32)sc2c(-c3cccc(Cl)c3)cccc12` [Example Compound S1-10, 7-(3-Chlorophenyl)-N-[(4S)-3,4-dihydro-2H-chromen-4-yl]-3-methoxy-1-benzothiophene-2-carboxamide] the same measures were 0.37 µg/mL (≈ 0.822 µM) and 398 nM.
For `O=C(N[C@H]1CCOc2ccccc21)c1cnc2c(ccc(=O)n2-c2cc(Cl)cc(Cl)c2)c1` [Example Compound S7-1, 8-(3,5-Dichlorophenyl)-N-[(4S)-3,4-dihydro-2H-chromen-4-yl]-7-oxo-7,8-dihydro-1,8-naphthyridine-3-carboxamide] the same measures were 1.95 µg/mL (≈ 4.18 µM) and 200 nM.
As to `Cn1c(C(=O)N[C@H]2CCc3ccccc32)nc2c(-c3cccc(Cl)c3Cl)ccnc21` [Example Compound S2-2, 7-(2,3-Dichlorophenyl)-N-[(1S)-2,3-dihydro-1H-inden-1-yl]-3-methyl-3H-imidazo[4,5-b]pyridine-2-carboxamide], the values for the half-maximal effective concentration (EC50) (in assay [1]; on C. elegans Slo-1a) were 0.37 µg/mL (≈ 0.846 µM) and 501 nM, respectively.
As for `O=C(N[C@H]1CCOc2ccccc21)c1ccc2nc(-c3ccccc3Cl)cnc2c1` [Example Compound S9-2, 2-(2-Chlorophenyl)-N-[(4S)-3,4-dihydro-2H-chromen-4-yl]quinoxaline-6-carboxamide], the concentration for a half-maximal effect (EC50) was 1.95 µg/mL (≈ 4.69 µM) in assay [1] and 631 nM at C. elegans Slo-1a.
`COc1c(C(=O)N[C@H]2CCOc3ccccc32)sc2c(-c3cccc(Cl)c3)nccc12` [Example Compound S1-15, 7-(3-Chlorophenyl)-N-[(4S)-3,4-dihydro-2H-chromen-4-yl]-3-methoxythieno[2,3-c]pyridine-2-carboxamide]: the EC50 is greater than 2 µg/mL in assay [1] and 794 nM at C. elegans Slo-1a.
For `Cc1nn(-c2cc(Cl)cc(Cl)c2)c2ncc(C(=O)N[C@H]3CCOc4ccccc43)c(N(C)C)c12` [Example Compound S4-2, 1-(3,5-Dichlorophenyl)-N-[(4S)-3,4-dihydro-2H-chromen-4-yl]-4-(dimethylamino)-3-methyl-1H-pyrazolo[3,4-b]pyridine-5-carboxamide] the same measures were greater than 2 µg/mL and 2000 nM.
For `CC(C)c1c(C(=O)N[C@H]2CCc3ccccc32)ccc2c1nnn2-c1ccccc1` [Example Compound S4-7, N-[(1S)-2,3-Dihydro-1H-inden-1-yl]-1-phenyl-4-(propan-2-yl)-1H-benzotriazole-5-carboxamide] the same measures were greater than 2 µg/mL and 2000 nM.
For `O=C(N[C@H]1CCOc2ccccc21)c1sc2c(-c3cccc(Cl)c3Cl)ccc(F)c2c1N1CCOCC1` [Example Compound S1-17, 7-(2,3-Dichlorophenyl)-N-[(4S)-3,4-dihydro-2H-chromen-4-yl]-4-fluoro-3-(morpholin-4-yl)-1-benzothiophene-2-carboxamide] the same measures were 0.52 µg/mL (≈ 0.933 µM) and 50.1 nM.
On to `O=C(N[C@H]1CCOc2ccccc21)c1ccc2nc(-c3cccc(Cl)c3Cl)cnc2c1` [Example Compound S9-4, 2-(2,3-Dichlorophenyl)-N-[(4S)-3,4-dihydro-2H-chromen-4-yl]quinoxaline-6-carboxamide], for which the results for the half-maximal effective concentration (EC50) (in assay [1]; at C. elegans Slo-1a) were 0.32 µg/mL (≈ 0.711 µM) and 20 nM, respectively.
For `O=C(N[C@H]1CCc2ccccc21)c1ccc2nc(-c3cccc(Cl)c3Cl)cnc2c1` [Example Compound S9-5, 2-(2,3-Dichlorophenyl)-N-[(1S)-2,3-dihydro-1H-inden-1-yl]quinoxaline-6-carboxamide] the same measures were 0.37 µg/mL (≈ 0.852 µM) and 31.6 nM.
